The values that follow come from paper PMC11431963 (International Journal of Molecular Sciences, 2024).

As a reminder, the AUC is concentration integrated over time. A lower AUC goes with low exposure.

The target in data set [1] is T1, murine Abcg2 (Mus musculus, UniProt Q7TMS5).
T1 sequence (Q7TMS5 1-657): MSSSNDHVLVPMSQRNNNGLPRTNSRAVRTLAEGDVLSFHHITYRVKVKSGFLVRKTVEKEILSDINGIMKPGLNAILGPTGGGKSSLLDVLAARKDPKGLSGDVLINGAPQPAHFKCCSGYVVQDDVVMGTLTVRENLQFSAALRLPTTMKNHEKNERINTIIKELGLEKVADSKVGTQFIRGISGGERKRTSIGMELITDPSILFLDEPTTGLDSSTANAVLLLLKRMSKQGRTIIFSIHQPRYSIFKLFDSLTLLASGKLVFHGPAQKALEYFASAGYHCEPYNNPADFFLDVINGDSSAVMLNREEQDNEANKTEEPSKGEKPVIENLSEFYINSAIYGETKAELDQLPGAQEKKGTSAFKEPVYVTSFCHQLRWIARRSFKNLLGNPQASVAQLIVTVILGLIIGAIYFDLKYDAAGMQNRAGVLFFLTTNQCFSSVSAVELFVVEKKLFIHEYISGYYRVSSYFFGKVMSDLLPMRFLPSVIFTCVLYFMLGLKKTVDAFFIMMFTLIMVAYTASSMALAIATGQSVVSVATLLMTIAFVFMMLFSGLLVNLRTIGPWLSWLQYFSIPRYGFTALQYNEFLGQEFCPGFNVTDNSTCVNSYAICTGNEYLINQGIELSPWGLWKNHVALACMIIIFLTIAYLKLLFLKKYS
Briefly: Transepithelial transport assay in MDCK-II cells transduced with murine Abcg2. Type of data set: in vitro ADME. On the procedure: (§1) For in vitro assays, the polarized cell line Madin-Darby canine kidney (MDCK-II) and their murine Abcg2 and human ABCG2 transduced subclones, which were previously generated and provided by A.H. Schinkel from the Netherlands Cancer Institute (Amsterdam, The Netherlands), were used.
(§2) Transcellular transport assays were performed as previously described, with minor modifications (Figure S1). Transduced MDCK-II cells were seeded as a monolayer on microporous membrane filters (3.0 μm pore size, 24 mm diameter; Transwell® 3414; Costar, Corning, NY, USA) at a density of 1.0 x 10^6 cells/well. Cells were grown for three days with daily medium replacement.
(§3) During the experiment, quality controls were performed in terms of monolayer tightness at the beginning and end of the assay using Millicell®ERS (Millipore, Burlington, MA, USA), and monolayer confluence was tested at the end of the experiment by means of Lucifer Yellow permeability. Transport proficiency was simultaneously checked by testing a typical ABCG2 substrate (danofloxacin 10 μM) (Table S1).
(§4) (to verify that the potential transport was specifically due to ABCG2). […] This volume was replaced with fresh Opti-MEM medium. Finally, at t = 4 h 600 µL aliquots were taken from the apical and basal compartments of each well. All samples were stored at −20 °C until being analyzed by high-performance liquid chromatography (HPLC), as described below.
(§5) The relative efflux transport ratio was calculated as the basal to apical directed transport percentage divided by the apical to basal directed transport percentage at 4 h.
(§6) Tissue samples were homogenized with a mixture of 50% water:50% methanol with 0.5% HCl; 1 mL of solution per 0.1 g of organ was used. To each 100 µL of plasma, milk or tissue homogenate, 10 µL of an albendazole-2-aminosulfone solution (100 µg/mL) was added as an internal standard and 400 µL of acetonitrile was also added in order to precipitate proteins. After 10 min of being horizontally vortexed, samples were centrifuged at 10,500× g for 10 min at 4 °C. Supernatants were evaporated to dryness at 40 °C under a stream of nitrogen. Samples were reconstituted in 100 µL of cold methanol and injected into the HPLC system. However, samples for in vitro assays were directly injected into the HPLC system.
(§7) The chromatographic system used for sample analysis consisted of a Waters 2695 separation module and a Waters 2998 UV photodiode array detector. Separation of samples was performed on an analytical reversed-phase column (5 µm particle size, 250 × 4.6 mm, EVO C18 100 Å, Phenomenex®, Torrance, CA, USA). The mobile phase used for in vitro samples was trifluoroacetic acid 0.04%:methanol (40:60), whereas for in vivo samples, it was ammonium acetate 25 mM (pH 5):acetonitrile (85:15). In both cases, the flow rate was set to 1.00 mL/min and UV absorbance was measured at 260.3 nm.

Data set [2] deals with parental MDCK-II cells. Briefly: Transepithelial transport assay in parental MDCK-II cells. Type of data set: in vitro ADME, canine. Particulars: danofloxacin 10 µM, positive control, 4 h. On the procedure:
as §1, §2, §3, §4
(§8) Lumichrome appearance in the opposite compartment is presented as the fraction of total compound added at the beginning of the experiment and expressed as percentage. The relative efflux transport ratio was calculated as the basal to apical directed transport percentage divided by the apical to basal directed transport percentage at 4 h.

Experiment in data set [3]: as above
It counts as in vitro ADME, canine. The following applies: dog, danofloxacin 10 µM, positive control, read-out: Transport ratio (BA/AB). On the procedure:
as §1, §2, §3, §4, §8

Data set [4] concerns the target T2, Abcg2 (BCRP) (Mus musculus, UniProt Q7TMS5).
T2 sequence (Q7TMS5 1-657): T1 sequence (Q7TMS5 1-657)
Nature of the data set: Transepithelial transport assay in MDCK-II cells transduced with murine Abcg2. It counts as in vitro ADME. The following applies: mouse; danofloxacin 10 µM, positive control, 4 h, MDCK-II mABCG2; read-out: Transport ratio (BA/AB). On the procedure:
as §1, §2, §3, §4, §5, §6, §7

Data set [5] concerns the target T3, ABCG2 (BCRP) (Homo sapiens, UniProt Q9UNQ0).
T3 sequence (Q9UNQ0 1-655): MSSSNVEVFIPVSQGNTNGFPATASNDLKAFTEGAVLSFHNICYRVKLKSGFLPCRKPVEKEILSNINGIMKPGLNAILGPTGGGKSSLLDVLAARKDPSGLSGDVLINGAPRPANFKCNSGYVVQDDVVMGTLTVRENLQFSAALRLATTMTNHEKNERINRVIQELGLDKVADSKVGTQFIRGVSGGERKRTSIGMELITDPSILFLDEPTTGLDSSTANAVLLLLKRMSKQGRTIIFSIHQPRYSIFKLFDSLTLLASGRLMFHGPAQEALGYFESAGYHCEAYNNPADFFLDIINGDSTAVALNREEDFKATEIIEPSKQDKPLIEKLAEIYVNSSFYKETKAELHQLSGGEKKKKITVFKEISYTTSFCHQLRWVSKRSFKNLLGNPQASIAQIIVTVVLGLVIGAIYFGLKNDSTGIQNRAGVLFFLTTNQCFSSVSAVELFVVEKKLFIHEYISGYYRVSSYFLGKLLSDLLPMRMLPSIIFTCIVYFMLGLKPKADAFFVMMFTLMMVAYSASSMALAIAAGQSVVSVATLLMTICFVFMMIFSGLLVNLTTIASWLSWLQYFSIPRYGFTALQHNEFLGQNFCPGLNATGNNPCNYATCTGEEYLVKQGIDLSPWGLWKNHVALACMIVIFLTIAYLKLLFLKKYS
Nature of the data set: Transepithelial transport assay in MDCK-II cells transduced with human ABCG2. Particulars: human; danofloxacin 10 µM, positive control, 4 h, MDCK-II hABCG2; read-out: Transport ratio (BA/AB). It counts as in vitro ADME. On the procedure:
as §1, §2, §3, §4, §5, §6
(§9) The chromatographic system used for sample analysis consisted of a Waters 2695 separation module and a Waters 2998 UV photodiode array detector. Separation of samples was performed on an analytical reversed-phase column (5 µm particle size, 250 × 4.6 mm, EVO C18 100 Å, Phenomenex®, Torrance, CA, USA). […] In both cases, the flow rate was set to 1.00 mL/min and UV absorbance was measured at 260.3 nm.

The target of data set [6] is T4, human ABCG2 (Homo sapiens, UniProt Q9UNQ0).
T4 sequence (Q9UNQ0 1-655): T3 sequence (Q9UNQ0 1-655)
The data set is described as above. Type of data set: in vitro ADME. On the procedure:
as §1, §2, §3, §4, §5, §6, §9

Data set [7] in a line: Plasma levels in wild-type and Abcg2-/- male mice after intraperitoneal administration. The following applies: for concentration at 45 min / concentration at 60 min: Plasma concentration.
From the text: (§10) Animals were handled according to institutional and ARRIVE guidelines complying with European legislation (2010/63/EU). Experimental procedures were approved by the Animal Care and Use Committee of the University of León and the Junta de Castilla y León (ULE_010_2021). Abcg2^-/- and wild-type mice were used, all of >99% FVB/N genetic background, generated and kindly supplied by A. H. Schinkel (The Netherlands Cancer Institute).
(§11) All animals, which were aged from 9 to 14 weeks and weighed 30 g, were kept in a temperature-controlled environment with a cycle of 12 h of light and 12 h of darkness and received a standard diet and water ad libitum.
(§12) Blood samples were collected at different time points (5, 10, 20, 30, 45, 60, 90 and 120 min) by cardiac puncture under anesthesia with isoflurane. Organs were harvested at the 60 min time point. All animals were euthanized by cervical dislocation at the end of the experimental procedure. Heparinized blood samples were centrifuged immediately at 3000× g for 15 min. Plasma and organs were stored at −20 °C until HPLC analysis. Three to ten animals were used for each time point.
as §6, §7

The nature of data set [8]: Tissue distribution in wild-type and Abcg2-/- male mice. The following applies: 10 mg/kg intraperitoneal; for concentration at 60 min: male, FVB/N, mouse, in vivo, ip, 10 mg/kg.
From the text: as §10, §11, §12, §6, §7

Data set [9] relates to non-small-cell lung cancer (NSCLC) cell lines. Particulars: p53-dependent mechanisms; cited from earlier work.
Data set [10] in a line: in vivo. The following applies: female, FVB/N, mouse, ip, 10 mg/kg, 10 mg/kg intraperitoneal.
From the text: as §10, §11
Pups of approximately 10 days old were separated from their mothers four hours before the onset of the experiment. […] Milk secretion was stimulated by oxytocin (200 μL of a 1 UI/mL solution), subcutaneously injected to lactating mice 10 min before sample collection. […] Animals were euthanized by cervical dislocation at the end of the experiment. Four to five animals were used for each group.
Heparinized blood samples were centrifuged immediately at 3000× g for 15 min to obtain plasma. Milk and plasma were also stored at −20 °C until HPLC analysis.
as §6, §7

Data set [11] has as its system Colo-205. Particulars: colorectal cancer cell line Colo-205; cited from earlier work.
Data set [12] deals with HepG2. Particulars: liver cancer cell line HepG2; cited from earlier work.
Data set [13] deals with MCF-7. Particulars: breast cancer cell line MCF-7; cited from earlier work.
Where [14] appears, read: danofloxacin 10 µM, positive control, 4 h, MDCK-II mABCG2.
Setting [15] is: danofloxacin 10 µM, positive control, 4 h, MDCK-II hABCG2.
[16] abbreviates: male, FVB/N, mouse, in vivo, ip, 10 mg/kg, Abcg2-/- male mice, 10 mg/kg intraperitoneal.
Where [17] appears, read: male, FVB/N, mouse, in vivo, ip, 10 mg/kg, wild-type male mice, 10 mg/kg intraperitoneal.

Take `COc1ccc2c3c([nH]c2c1)[C@H](CC(C)C)N1C(=O)[C@H](CCC(=O)OC(C)(C)C)NC(=O)[C@@H]1C3` [Ko143]: the “Inhibition of ABCG2-mediated transport of lumichrome” value in [1] (Ko143 1 µM, lumichrome 10 µM, murine Abcg2 subclone) is listed as “completely inhibited”.
For the compound `CN1C[C@@H]2C[C@H]1CN2c1cc2c(cc1F)c(=O)c(C(=O)O)cn2C1CC1` [danofloxacin], the results for the “AB transport (%)” value in data set [2], in data set [1] (setting [14]) and in [6] (setting [15]) were 22.84 ± 2.99%, 5.30 ± 1.97% and 17.22 ± 2.98%, respectively. Also, the “BA transport (%)” value in data set [2] stood at 21.82 ± 1.79%; in [1] (setting [14]) it was 45.77 ± 6.49%; in [6] (setting [15]), 33.94 ± 4.07%. Besides, the efflux ratio at 4 h, 10 µM in data set [3] came out at 0.96 ± 0.08; in [4], 9.24 ± 2.59; in [5], 2.04 ± 0.57.
In the case of `Cc1cc2nc3[nH]c(=O)[nH]c(=O)c3nc2cc1C` [lumichrome], the “Plasma AUC 20–120 min” value in [7] (Abcg2-/- male mice, 10 mg/kg intraperitoneal) is 1290 ± 110 ng·h/mL. In data set [7] (male, FVB/N, mouse, in vivo, ip, 10 mg/kg), the AUC turned out to be 720 ± 50 ng·h/mL. Besides, the concentration at 45 min stood at 1020 ± 260 ng/mL in data set [7] (setting [16]) and 390 ± 240 ng/mL in data set [7] (setting [17]). Also, the concentration at 60 min turned out to be 850 ± 500 ng/mL in data set [7] (setting [16]); 400 ± 130 ng/mL in data set [7] (setting [17]); 340 ± 120 ng/mL in data set [8] (Concentration in liver, Abcg2-/- male mice); 150 ± 70 ng/mL in data set [8] (Concentration in liver, wild-type male mice); 310 ± 110 ng/mL in data set [8] (Concentration in small intestine content, Abcg2-/- male mice); 850 ± 350 ng/mL in data set [8] (Concentration in small intestine content, wild-type male mice). The concentration at 60 min in [8] (Concentration in testis, Abcg2-/- male mice) came to 180 ± 50 ng/mL; in [8] (Concentration in testis, wild-type male mice), 80 ± 60 ng/mL. The “Tissue distribution (liver, kidney, small intestine, small intestine content, spleen, brain, testis)” value in data set [8] (male mice, 60 min) was “widely distributed in all organs analyzed”. Also, the “Concentration suppressing growth and inducing apoptosis” value in data set [9] was “above 25 µM”. Besides, the concentration at 30 min in [10] (Milk concentration, Abcg2-/- lactating female mice) worked out at 430 ± 180 ng/mL; in [10] (Milk concentration, wild-type lactating female mice), 1750 ± 730 ng/mL; in data set [10] (Plasma concentration, Abcg2-/- lactating female mice) it was 280 ± 100 ng/mL; in data set [10] (Plasma concentration, wild-type lactating female mice) it was 310 ± 60 ng/mL. The “Concentration showing significant cytotoxic activity” value in data set [11], in data set [12] and in data set [13] was “higher than 40 µM” throughout. Further, the “In vitro transport by the transporter (substrate)” value in data set [1] (lumichrome 10 µM, murine variant) is “efficiently transported”; in data set [6] (lumichrome 10 µM, human variant), “efficiently transported”.
